Measured values from patent publication US10259777B2, “(E)-3-(3,4-dihydroxyphenyl)-N-(prop-2-yn-1-yl)acrylamide for treatment of neurodegenerative diseases” (THE UNIVERSITY OF HONG KONG, priority 2015, dated 2019).

Columns and labels:
Assay type in all cases: cell-based, rat
PC12 cells [1] = assay: 6-OHDA-induced neurotoxicity in PC12 cells, MTT cell viability; conditions: 6-OHDA with or without PACA, 24 hours
Description: Neurotoxin 6-hydroxydopamine (6-OHDA) is widely used to induce the cell model of human Parkinsonism. PC12 cells were treated with 6-OHDA with or without PACA for 24-hours, the cell viability was assessed by the colorimetric MTT assay. The relative cell viability was plotted against the concentrations of PACA. On the other hand, primary midbrain neurons were isolated from 17-day-old Sprague Dawley (SD) rat embryos. The midbrain neurons were treated with 6-OHDA with or without PACA for 12-hours, the cell viability was assessed by the colorimetric MTT assay. Alternatively, the neurons were stained with 5 μM of Hoechst 33342 and 1 μM of PI in the differentiation medium at 37° C. for 30 min. The images were captured on a Zeiss fluorescence microscope. (A) MTT assay of the cell viability in PC 12 cells. […] PI-positive and Hoechst 33342-stained neurons were counted under a fluorescence microscope. […]
Neurotoxin 6-hydroxydopamine (6-OHDA) is widely used to induce the cell model of human Parkinsonism. PC12 cells were treated with 6-OHDA with or without PACA for 24-hours, the cell viability was assessed by the colorimetric MTT assay. […] The midbrain neurons were treated with 6-OHDA with or without PACA for 12-hours, the cell viability was assessed by the colorimetric MTT assay. […] The images were captured on a Zeiss fluorescence microscope.

PC12 cells [2] = assay: NGF-induced neurite outgrowth (neuritogenic activity) in PC12 cells; conditions: 72 hours
Description: (§1) The neuritogenic potential of PACA was verified by the induction of the main neuronal biomarkers (i.g., β3-tubulin, MAP-2 and GAP43). (A) Representative images for the potentiation of NGF-induced neurite outgrowth in PC12 cells by PACA. PC12 cells were treated with NGF (2 ng/ml) and PACA, alone or in combination. The cells were stained with neurite outgrowth staining kit and imaged under a fluorescence microscope. (B) Quantification of neurite outgrowth in Panel A. Following the staining of neurites, the cells bearing neurites longer than 20 μm were counted under a fluorescence microscope. **, p<0.01 (sample vs NGF alone). (C) Western blot analysis of neuronal biomarkers. The cells were treated with NGF and PACA, alone or in combination, whereas the control cells were treated with vehicle for 72 hours. The cellular proteins were extracted and detected by Western blot analysis for the expression of neuron marker. GAPDH was detected as the control of protein loading.
(§2) The neuritogenic activity of PACA was evaluated in rat dopaminergic PC12 cells. PC12 cells were treated with NGF (2 ng/mL) alone or in combination with PACA at the concentrations of 5, 10, 20 μM for 72 hours. The cells were stained by a neurite outgrowth kit, and subsequently analyzed for neurites (>20 μm) under a fluorescence microscope. […] Following the treatment with PACA and NGF, alone or in combination, PC12 cells were analyzed by Western blotting for the expression of neuronal biomarkers (i.g., β3-tubulin, MAP2 and GAP-43).

[3] = tested on: β3-tubulin, MAP2 and GAP-43; assay: Western blot of neuronal biomarkers in PC12 cells; conditions: PACA and NGF, alone or in combination
Description: as §1
as §2, with “PC12 cells were treated with NGF (2 ng/mL) alone or in combination with PACA at the concentrations of 5, 10, 20 μM for 72 hours.” left out

Nrf2 = Nrf2 translocation into cell nuclei, Western blot and immunostaining
Description: Direct modification of Keap1 caused the dissociation of Nrf2-Keap1 complex. Based on Western blot analysis of the nuclear proteins and immunostaining of intracellular Nrf2, PACA induced the translocation of Nrf2 into the cell nuclei in a concentration-dependent manner. (A) Western blot analysis of cytosolic and nuclear Nrf2. Following PACA treatment, the cytosolic and nuclear proteins were isolated and analyzed by Western blotting for Nrf2 expression. GAPDH and lamin b were analyzed as the control of protein loading. (B) Immunostaining of the intracellular Nrf2. Following PACA treatment, the cells were probed with Nrf2 antibody, and subsequently visualized with […] secondary antibody. […] The images were captured under a fluorescence microscope. […]
Direct modification of Keap1 caused the dissociation of Nrf2-Keap1 complex. […] For Western blot analysis, the cellular proteins were separated into the cytosolic and nuclear fractions, and analyzed by Western blotting with Nrf2 antibodies. GAPDH was used as the control of protein loading, whereas Lamin B was detected as the nuclear biomarker. […] For immunostaining of the intracellular Nrf2, on the other hand, PC12 cells were sequentially probed with rabbit anti-Nrf2 antibody and detected by Alexa Fluor 594-conjugated goat anti-rabbit IgG antibodies PACA. The images were captured under a Zeiss fluorescence microscope.

C#CCNC(=O)/C=C/c1ccc(O)c(O)c1 [PACA, (E)-3-(3,4-dihydroxyphenyl)-N-(prop-2-yn-1-yl)acrylamide]
6-OHDA neurotoxicity in PC12 cells (PC12 cells [1]): attenuated 6-hydroxydopamine (6-OHDA) neurotoxicity
neurite outgrowth by compound alone (PC12 cells [2]; PACA 20 μM alone): did not induce neurite outgrowth
increase in number of neurite-bearing cells relative to NGF alone (PC12 cells [2]; PACA 20 μM and NGF 2 ng/mL in combination): ~6 fold
potentiation of NGF-induced neurite outgrowth (PC12 cells [2]; PACA 5, 10, 20 μM with NGF 2 ng/mL, neurites >20 μm, compared with NGF alone): significantly potentiated NGF-induced neurite outgrowth in a concentration-dependent manner
induction of neuronal markers β3-tubulin, MAP2 and GAP-43 [3]: enhanced the neuritogenic activity of NGF in a concentration-dependent manner
levels of nuclear Nrf2 (Nrf2; PACA at different concentrations, Western blot of nuclear fraction): significantly increased the levels of nuclear Nrf2 in a concentration-dependent manner
intracellular Nrf2 localization by immunostaining (Nrf2; PC12 cells, anti-Nrf2 immunostaining): promoted the accumulation of Nrf2 in the cell nucleus
